# Laboratory results published in ChEMBL document CHEMBL1201862, “PubChem BioAssay data set” (2004).
#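 Growth conditions: 96-well plates. Treatment: test compound, 48 hours, 5 concentrations. Analysis: linear interpolation between bracketing concentrations; unreached endpoints set to highest concentration. The concentration for 50% growth inhibition is given as GI50.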 Active and inactive are the calls of the source. No stated cut-off is given here; in the data, active = GI50 up to about 1.1 µM and inactive = higher.
# What was measured:
# Assay in all cases: NCI tumour cell line growth inhibition, 48 h
# 786-0 = system: 786-0
# A498 = system: A498
# A549 = system: A549
# ACHN = system: ACHN
# CAKI-1 = system: CAKI-1
# CCRF-CEM = system: CCRF-CEM
# COLO 205 = system: COLO 205
# DLD-1 = system: DLD-1
# DU-145 = system: DU-145
# EKVX = system: EKVX
# HCC 2998 = system: HCC 2998
# HCT-116 = system: HCT-116
# HL-60 = system: HL-60
# HOP-18 = system: HOP-18
# HOP-92 = system: HOP-92
# HT-29 = system: HT-29
# IGROV-1 = system: IGROV-1
# K562 = system: K562
# KM-20L2 = system: KM-20L2
# KM12 = system: KM12
# LOX IMVI = system: LOX IMVI
# LXFL 529 = system: LXFL 529
# M14 = system: M14
# M19-MEL = system: M19-MEL
# MOLT-4 = system: MOLT-4
# Malme-3M = system: Malme-3M
# NCI-H226 = system: NCI-H226
# NCI-H23 = system: NCI-H23
# NCI-H460 = system: NCI-H460
# NCI-H522 = system: NCI-H522
# OVCAR-3 = system: OVCAR-3
# OVCAR-4 = system: OVCAR-4
# OVCAR-5 = system: OVCAR-5
# OVCAR-8 = system: OVCAR-8
# RPMI-8226 = system: RPMI-8226
# RXF 393 = system: RXF 393
# SF-268 = system: SF-268
# SF-295 = system: SF-295
# SF-539 = system: SF-539
# SK-MEL-28 = system: SK-MEL-28
# SK-MEL-2 = system: SK-MEL-2
# SK-MEL-5 = system: SK-MEL-5
# SK-OV-3 = system: SK-OV-3
# SN12C = system: SN12C
# SNB-19 = system: SNB-19
# SNB-75 = system: SNB-75
# SR = system: SR
# SW-620 = system: SW-620
# TK-10 = system: TK-10
# U-251 = system: U-251
# UACC-257 = system: UACC-257
# UACC-62 = system: UACC-62
# UO-31 = system: UO-31
# XF498 = system: XF498
# DMS-114 = system: DMS-114
# DMS-273 = system: DMS-273
# HCT-15 = system: HCT-15
# HOP-62 = system: HOP-62
# SNB-78 = system: SNB-78
structure (smiles),measurement,setting,value
C[N+](C)(C)CC(=O)N/N=C/c1oc(-c2c(O)ccc3ccccc23)c(-c2c(O)ccc3ccccc23)c1[N+](=O)[O-],GI50,786-0,19.9 µM (inactive)
same,GI50,A498,16.9 µM (inactive)
same,GI50,A549,21.5 µM (inactive)
same,GI50,ACHN,3.31 µM (inactive)
same,GI50,CAKI-1,24.7 µM (inactive)
same,GI50,CCRF-CEM,15.4 µM (inactive)
same,GI50,COLO 205,21.9 µM (inactive)
same,GI50,DLD-1,14.1 µM (inactive)
same,GI50,DU-145,15.4 µM (inactive)
same,GI50,EKVX,21.9 µM (inactive)
same,GI50,HCC 2998,16 µM (inactive)
same,GI50,HCT-116,12.2 µM (inactive)
same,GI50,HL-60,18.5 µM (inactive)
same,GI50,HOP-18,15.9 µM (inactive)
same,GI50,HOP-92,12.7 µM (inactive)
same,GI50,HT-29,13.2 µM (inactive)
same,GI50,IGROV-1,11 µM (inactive)
same,GI50,K562,12.6 µM (inactive)
same,GI50,KM-20L2,3.1 µM (inactive)
same,GI50,KM12,11.5 µM (inactive)
same,GI50,LOX IMVI,11.6 µM (inactive)
same,GI50,LXFL 529,14.8 µM (inactive)
same,GI50,M14,17.3 µM (inactive)
same,GI50,M19-MEL,20.4 µM (inactive)
same,GI50,MOLT-4,14.5 µM (inactive)
same,GI50,Malme-3M,11.4 µM (inactive)
same,GI50,NCI-H226,17.4 µM (inactive)
same,GI50,NCI-H23,16.4 µM (inactive)
same,GI50,NCI-H460,19.5 µM (inactive)
same,GI50,NCI-H522,15.8 µM (inactive)
same,GI50,OVCAR-3,16.3 µM (inactive)
same,GI50,OVCAR-4,21.5 µM (inactive)
same,GI50,OVCAR-5,22.1 µM (inactive)
same,GI50,OVCAR-8,19.1 µM (inactive)
same,GI50,RPMI-8226,27 µM (inactive)
same,GI50,RXF 393,11.2 µM (inactive)
same,GI50,SF-268,12.4 µM (inactive)
same,GI50,SF-295,17.1 µM (inactive)
same,GI50,SF-539,14.7 µM (inactive)
same,GI50,SK-MEL-28,21.3 µM (inactive)
same,GI50,SK-MEL-2,16.2 µM (inactive)
same,GI50,SK-MEL-5,8.87 µM (inactive)
same,GI50,SK-OV-3,14.2 µM (inactive)
same,GI50,SN12C,24.2 µM (inactive)
same,GI50,SNB-19,28.2 µM (inactive)
same,GI50,SNB-75,14.7 µM (inactive)
same,GI50,SR,15.2 µM (inactive)
same,GI50,SW-620,21.5 µM (inactive)
same,GI50,TK-10,26.3 µM (inactive)
same,GI50,U-251,15 µM (inactive)
same,GI50,UACC-257,18.5 µM (inactive)
same,GI50,UACC-62,1.53 µM (inactive)
same,GI50,UO-31,7.36 µM (inactive)
same,GI50,XF498,20.6 µM (inactive)
O=c1c(-c2ccccc2)c2oc(c1-c1ccccc1)CS(=O)(=O)CCC2,GI50,786-0,19.8 µM (inactive)
same,GI50,A549,57.3 µM (inactive)
same,GI50,ACHN,29 µM (inactive)
same,GI50,CAKI-1,28.8 µM (inactive)
same,GI50,CCRF-CEM,23.8 µM (inactive)
same,GI50,COLO 205,21 µM (inactive)
same,GI50,DLD-1,21.6 µM (inactive)
same,GI50,DMS-114,39.5 µM (inactive)
same,GI50,DMS-273,22.5 µM (inactive)
same,GI50,EKVX,> 100 µM (inactive)
same,GI50,HCC 2998,> 10 µM (inactive)
same,GI50,HCT-116,12.7 µM (inactive)
same,GI50,HCT-15,15.6 µM
same,GI50,HL-60,25.6 µM (inactive)
same,GI50,HOP-18,< 0.01 µM (active)
same,GI50,HOP-62,42.6 µM (inactive)
same,GI50,HOP-92,> 100 µM (inactive)
same,GI50,HT-29,25.5 µM (inactive)
same,GI50,IGROV-1,45 µM (inactive)
same,GI50,K562,31.1 µM (inactive)
same,GI50,KM12,32.2 µM (inactive)
same,GI50,LOX IMVI,20.2 µM (inactive)
same,GI50,LXFL 529,17.7 µM (inactive)
same,GI50,M19-MEL,17 µM (inactive)
same,GI50,MOLT-4,24.2 µM (inactive)
same,GI50,Malme-3M,49.4 µM (inactive)
same,GI50,NCI-H226,18.5 µM (inactive)
same,GI50,NCI-H23,17.6 µM (inactive)
same,GI50,NCI-H460,31.6 µM (inactive)
same,GI50,NCI-H522,9.98 µM (inactive)
same,GI50,OVCAR-3,22.6 µM (inactive)
same,GI50,OVCAR-8,36.8 µM (inactive)
same,GI50,RPMI-8226,26.9 µM (inactive)
same,GI50,RXF 393,13.8 µM (inactive)
same,GI50,SF-268,21.9 µM (inactive)
same,GI50,SF-295,> 100 µM (inactive)
same,GI50,SF-539,18.2 µM (inactive)
same,GI50,SK-MEL-28,17.5 µM (inactive)
same,GI50,SK-MEL-2,> 100 µM (inactive)
same,GI50,SK-MEL-5,27.7 µM (inactive)
same,GI50,SK-OV-3,> 100 µM (inactive)
same,GI50,SN12C,16.9 µM (inactive)
same,GI50,SNB-19,> 100 µM (inactive)
same,GI50,SR,23.3 µM (inactive)
same,GI50,SW-620,32.7 µM (inactive)
same,GI50,TK-10,37.5 µM (inactive)
same,GI50,UACC-257,28.8 µM (inactive)
same,GI50,UACC-62,21.5 µM (inactive)
same,GI50,XF498,5.97 µM (inactive)
CSc1nc(NC2OC(COC(C)=O)C(OC(C)=O)C(OC(C)=O)C2OC(C)=O)c2c(OC(C)=O)c(C)c(=O)oc2n1 (stereo unspecified),GI50,786-0,> 100 µM (inactive)
same,GI50,A498,> 100 µM (inactive)
same,GI50,A549,> 100 µM (inactive)
same,GI50,ACHN,> 100 µM (inactive)
same,GI50,CAKI-1,> 100 µM (inactive)
same,GI50,CCRF-CEM,> 100 µM (inactive)
same,GI50,COLO 205,> 100 µM (inactive)
same,GI50,DLD-1,> 100 µM (inactive)
same,GI50,DMS-114,> 100 µM (inactive)
same,GI50,EKVX,> 100 µM (inactive)
same,GI50,HCC 2998,> 100 µM (inactive)
same,GI50,HCT-116,> 100 µM (inactive)
same,GI50,HCT-15,> 100 µM
same,GI50,HL-60,> 100 µM (inactive)
same,GI50,HOP-18,> 100 µM (inactive)
same,GI50,HOP-62,> 100 µM (inactive)
same,GI50,HOP-92,> 100 µM (inactive)
same,GI50,HT-29,> 100 µM (inactive)
same,GI50,IGROV-1,> 100 µM (inactive)
same,GI50,K562,> 100 µM (inactive)
same,GI50,KM-20L2,> 100 µM (inactive)
same,GI50,KM12,> 100 µM (inactive)
same,GI50,LOX IMVI,> 100 µM (inactive)
same,GI50,LXFL 529,> 100 µM (inactive)
same,GI50,M14,> 100 µM (inactive)
same,GI50,M19-MEL,> 100 µM (inactive)
same,GI50,MOLT-4,> 100 µM (inactive)
same,GI50,Malme-3M,> 100 µM (inactive)
same,GI50,NCI-H226,> 100 µM (inactive)
same,GI50,NCI-H23,> 100 µM (inactive)
same,GI50,NCI-H460,> 100 µM (inactive)
same,GI50,OVCAR-3,> 100 µM (inactive)
same,GI50,OVCAR-4,> 100 µM (inactive)
same,GI50,OVCAR-5,> 100 µM (inactive)
same,GI50,OVCAR-8,> 100 µM (inactive)
same,GI50,RPMI-8226,> 100 µM (inactive)
same,GI50,RXF 393,> 100 µM (inactive)
same,GI50,SF-295,> 100 µM (inactive)
same,GI50,SF-539,> 100 µM (inactive)
same,GI50,SK-MEL-2,> 100 µM (inactive)
same,GI50,SK-MEL-5,> 100 µM (inactive)
same,GI50,SK-OV-3,> 100 µM (inactive)
same,GI50,SN12C,> 100 µM (inactive)
same,GI50,SNB-19,> 100 µM (inactive)
same,GI50,SNB-75,> 100 µM (inactive)
same,GI50,SNB-78,> 100 µM (inactive)
same,GI50,SW-620,> 100 µM (inactive)
same,GI50,TK-10,> 100 µM (inactive)
same,GI50,U-251,> 100 µM (inactive)
same,GI50,UACC-257,> 100 µM (inactive)
same,GI50,UACC-62,> 100 µM (inactive)
same,GI50,UO-31,> 100 µM (inactive)
same,GI50,XF498,> 100 µM (inactive)
